From patent US20200131558A1, “PAPER-BASED ASSAY FOR ANTIMICROBIAL RESISTANCE” (Colorado State University Research Foundation, priority 2017, published 2020)

Assays:
[1] = test system: C. violaceum's β-lactamase; assay: Paper-based test on intact bacterial isolates; type: cell-based, Chromobacterium violaceum; conditions: intact bacteria, 0.5 mM nitrocefin, 2 hr
Method: Bacterial isolates were obtained from grab samples in the field, except for influent. Field samples include influent, effluent, surface water from a river and sewage samples from city sewers. All samples were plated by pipetting 50-100 μL on various clinical agars [CHROMagar™ Orientation, CHROMagar™ ESBL, and CHROMagar™ KPC]. Bacterial isolates were purified by selecting a single colony with an inoculating loop and spreading the colony on the same kind of agar the colony was selected from, or was spread onto a MacConkey agar plate [Difco]. To remove potential inhibitors before any testing, they were further subcultured onto non selective agar [Tryptic Soy Agar, Thermo Scientific™ Remel™] and then grown in a nutrient broth [Tryptic Soy Broth, Thermo Scientific™ Remel™, Soybean Casein Digest] at 37° C. and 2% CO2. After replenishing the nutrient broth, all bacteria isolates were grown using a shaker for 12-18 hr depending on bacteria growth rate. They were also re-plated on ESBL plates to confirm resistance mechanisms. The isolates were given to the tester blind for accurate, unbiased results. Bacteria were not lysed before reacting 20 μL of bacteria solution with 20 μL of 0.5 mM nitrocefin. Images were obtained after 2 hr of reaction.

β-lactamase = conditions: on paper, ~22° C., 1 U/mL β-lactamase, Lineweaver-Burk plot
Method: Nitrocefin [VWR International], a chromogenic cephalosporin, was used for detection of β-lactamase because of the distinct color change from yellow to red in the presence of the enzyme, making it a user-friendly platform. […] Aliquots of 9.68 mM nitrocefin was frozen at −20° C. in amber microcentrifuge tubes [VWR International]. These tubes were used to minimize degradation from UV exposure. Aliquots were taken out and allowed to thaw and warm to room temperature. Nitrocefin was further diluted with pH 7.4 phosphate buffered saline (PBS) [1.37 M NaCl, 0.027 M of KCl, 0.1 M Na2HPO4, and 0.018 M KH2PO4] to a concentration of 0.5 mM for each experiment (except for nitrocefin concentration optimization where 0.5 mM was selected). During pH optimization experiments, nitrocefin was diluted in pH buffers ranging from pH 6 to pH 9. Recombinant β-lactamase was purchased at a concentration of 1,500 U/mg [Abcam] and was initially dissolved in dH2O and aliquoted and frozen. […]
In order to quantify the concentration of nitrocefin that was hydrolyzed every minute, a calibration curve was generated by quantifying the red product after the reaction had completed, and plotting green light intensity vs. product concentration. […] The calculated Vmax and Km values were carried out in the Michaelis-Menten equation to obtain a theoretical kinetic curve to compare to data points.

[2] = type: physicochemical
[3] = test system: Chromobacterium violaceum; assay: Growth on ampicillin-containing agar plate; type: cell-based; conditions: C. violaceum isolate
[4] = test system: Chromobacterium violaceum; assay: Antibiotic susceptibility testing (MIC, VITEK 2 microdilution); type: cell-based; conditions: C. violaceum isolate from influent of urban sewage water
Method: To determine antibiotic susceptibility of Chromobacterium violaceum and the 32 E. coli isolates, each isolate was subjected to antibiotic susceptibility testing [VITEK 2™ Biomerieux, USA] using microdilution and photometric determination of growth at the Colorado State University Veterinary Diagnostic Laboratory located in Fort Collins, Colo., US. […] The antibiotics that were tested against C. violaceum included amikacin, amoxicillin-clavulanate, ampicillin, cefazolin, cefpodoxime, ceftazidime, cephalothin, imipenem, ticarcillin, and ticarcillin-clavulanate. Antibiotics tested against each E. coli isolate included amoxicillin, ampicillin, cefalexin, cefovecin, cefpodoxime, ceftiofur, piperacillin, ceftazidime, cefotaxime, and imipenem.

## O=C(Cc1cccs1)N[C@@H]1C(=O)N2C(C(=O)O)=C(/C=C/c3ccc([N+](=O)[O-])cc3[N+](=O)[O-])CS[C@H]12 [nitrocefin]
[1]
  reaction with the isolate's β-lactamase (color change): did not react
β-lactamase
  Km: 293 ± 13 µM
  Vmax: 0.0285 ± 0.0012 mM/min
[2]
  solubility in water: insoluble in water

## CC1(C)S[C@@H]2[C@H](NC(=O)[C@H](N)c3ccccc3)C(=O)N2[C@H]1C(=O)O [ampicillin]
[3]
  growth on ampicillin-containing agar plate: did not grow

## CC1(C)S[C@@H]2[C@H](NC(=O)[C@H](N)c3ccc(O)cc3)C(=O)N2[C@H]1C(=O)O [amoxicillin]
[4]
  resistance/susceptibility of isolate (MIC interpreted per CLSI): susceptible

## CC(=O)OCC1=C(C(=O)O)N2C(=O)[C@@H](NC(=O)Cc3cccs3)[C@H]2SC1 [cephalothin]
[4]
  resistance/susceptibility of isolate (MIC interpreted per CLSI): resistant

## CC1(C)S[C@@H]2[C@H](NC(=O)[C@H](C(=O)O)c3ccsc3)C(=O)N2[C@H]1C(=O)O [ticarcillin]
[4]
  resistance/susceptibility of isolate (MIC interpreted per CLSI): susceptible

## Cc1nnc(SCC2=C(C(=O)O)N3C(=O)[C@@H](NC(=O)Cn4cnnn4)[C@H]3SC2)s1 [cefazolin]
[4]
  resistance/susceptibility of isolate (MIC interpreted per CLSI): resistant
